Laboratory results published in paper PMC10648852, “Molecular drivers of resistance to sulbactam-durlobactam in contemporary clinical isolates of Acinetobacter baumannii” (Antimicrobial Agents and Chemotherapy, 2023).

Columns and labels:
Assay in all cases: microbe, parasite or virus in culture
[1] = tested on: A. baumannii clinical isolates; assay type: cell-based
Procedure: (§1) The following report describes the genomic analysis of these isolates for likely resistance mechanisms. Biochemical analysis of purified PBP3 and phenotypic analyses of both clinical and isogenic strains were also conducted to determine the relative impact of key resistance determinants to SUL-DUR antibacterial activity.
(§2) Antimicrobial susceptibility testing was performed using broth microdilution following standardized methods established by the Clinical Laboratory Standards Institute (CLSI) ([35], [36]). […] MIC values were interpreted using CLSI breakpoints for all antimicrobial agents except those for which CLSI breakpoints are not available ([35]). SUL-DUR was tested as twofold dilutions of sulbactam in combination with a fixed concentration of 4 µg/mL durlobactam ([35]).

[2] = tested on: A. pittii clinical isolates; assay type: cell-based
Procedure: as §1, §2

[3] = tested on: A. nosocomialis clinical isolate; assay type: cell-based; conditions: isolate ARC7023 (IHMA 2118812), France, BSI, 2019
Procedure: as §1, §2

[4] = tested on: ABC clinical isolates with SUL-DUR MIC > 4 µg/mL; assay type: cell-based, Acinetobacter baumannii-calcoaceticus complex
Procedure: as §1, §2

CN(C)c1ccc(O)c2c1C[C@H]1C[C@H]3[C@H](N(C)C)C(O)=C(C(N)=O)C(=O)[C@@]3(O)C(O)=C1C2=O [MIN]
MIC ([1]; isolate ARC6644 (IHMA 1420327), Mexico, UTI, 2016): 8 µg/mL | MIC ([1]; isolate ARC6645 (IHMA 1435703), France, UTI, 2016): 0.5 µg/mL | MIC ([1]; isolate ARC6646 (IHMA 1484127), United States, RTI, 2016): 8 µg/mL | MIC ([1]; isolate ARC6647 (IHMA 1386786), Argentina, RTI, 2016): 1 µg/mL | MIC ([1]; isolate ARC6648 (IHMA 1407634), Spain, RTI, 2016): 1 µg/mL | MIC ([1]; isolate ARC6650 (IHMA 1457337), Argentina, RTI, 2016): 4 µg/mL | MIC ([1]; isolate ARC6652 (IHMA 1465642), Belgium, RTI, 2016): ≤0.12 µg/mL | MIC ([1]; isolate ARC6653 (IHMA 1308777), Vietnam, RTI, 2016): 16 µg/mL | MIC ([1]; isolate ARC6799 (IHMA 1562935), Spain, UTI, 2017): >16 µg/mL | MIC ([1]; isolate ARC6800 (IHMA 1557526), Turkey, RTI, 2017): 2 µg/mL | MIC ([1]; isolate ARC6801 (IHMA 1662094), Thailand, RTI, 2017): 0.5 µg/mL | MIC ([1]; isolate ARC6802 (IHMA 1557073), Spain, UTI, 2017): >16 µg/mL | MIC ([1]; isolate ARC6803 (IHMA 1589408), Belgium, UTI, 2017): ≤0.12 µg/mL | MIC ([1]; isolate ARC6805 (IHMA 1558650), United States, RTI, 2017): 8 µg/mL | MIC ([1]; isolate ARC6808 (IHMA 1557168), Spain, RTI, 2017): 16 µg/mL | MIC ([1]; isolate ARC6809 (IHMA 1699528), Guatemala, RTI, 2017): ≤0.12 µg/mL | MIC ([1]; isolate ARC6810 (IHMA 1699548), Guatemala, RTI, 2017): 1 µg/mL | MIC ([1]; isolate ARC6812 (IHMA 1699530), Guatemala, RTI, 2017): 0.25 µg/mL | MIC ([1]; isolate ARC6813 (IHMA 1699543), Guatemala, UTI, 2017): 0.25 µg/mL | MIC ([1]; isolate ARC6814 (IHMA 1699512), Guatemala, RTI, 2017): 4 µg/mL | MIC ([1]; isolate ARC6815 (IHMA 1699513), Guatemala, RTI, 2017): 0.25 µg/mL | MIC ([1]; isolate ARC6816 (IHMA 1699521), Guatemala, RTI, 2017): 8 µg/mL | MIC ([1]; isolate ARC6817 (IHMA 1699523), Guatemala, RTI, 2017): ≤0.12 µg/mL | MIC ([1]; isolate ARC6818 (IHMA 1683261), Thailand, RTI, 2017): ≤0.12 µg/mL | MIC ([1]; isolate ARC6819 (IHMA 1683267), Thailand, RTI, 2017): 8 µg/mL | MIC ([1]; isolate ARC6820 (IHMA 1647876), Argentina, RTI, 2017): 4 µg/mL | MIC ([1]; isolate ARC6821 (IHMA 1699517), Guatemala, RTI, 2017): ≤0.12 µg/mL | MIC ([1]; isolate ARC6822 (IHMA 1637626), Guatemala, RTI, 2017): 0.25 µg/mL | MIC ([1]; isolate ARC6823 (IHMA 1620872), Greece, SSSI, 2017): 8 µg/mL | MIC ([1]; isolate ARC6824 (IHMA 1625487), Argentina, BSI, 2017): 2 µg/mL | MIC ([1]; isolate ARC6937 (IHMA 1562926), Spain, UTI, 2017): >16 µg/mL | MIC ([1]; isolate ARC6950 (IHMA 1820064), Israel, RTI, 2018): 2 µg/mL | MIC ([1]; isolate ARC6953 (IHMA 1909827), Turkey, IAI, 2018): 0.5 µg/mL | MIC ([1]; isolate ARC6954 (IHMA 1838192), Guatemala, SSSI, 2018): 0.5 µg/mL | MIC ([1]; isolate ARC6955 (IHMA 1825425), United States, RTI, 2018): 2 µg/mL | MIC ([1]; isolate ARC7008 (IHMA 2009813), Thailand, BSI, 2019): 4 µg/mL | MIC ([1]; isolate ARC7009 (IHMA 2043611), United States, UTI, 2019): 2 µg/mL | MIC ([1]; isolate ARC7010 (IHMA 2043398), United States, RTI, 2019): 1 µg/mL | MIC ([1]; isolate ARC7011 (IHMA 2104553), Germany, RTI, 2019): 2 µg/mL | MIC ([1]; isolate ARC7012 (IHMA 2010001), Thailand, RTI, 2019): 2 µg/mL | MIC ([1]; isolate ARC7013 (IHMA 1962831), Argentina, RTI, 2019): 1 µg/mL | MIC ([1]; isolate ARC7014 (IHMA 2045328), Guatemala, IAI, 2019): 16 µg/mL | MIC ([1]; isolate ARC7015 (IHMA 2045327), Guatemala, UTI, 2019): 0.25 µg/mL | MIC ([1]; isolate ARC7016 (IHMA 2148441), Brazil, BSI, 2019): 0.5 µg/mL | MIC ([1]; isolate ARC7017 (IHMA 2148446), Brazil, BSI, 2019): 0.25 µg/mL | MIC ([1]; isolate ARC7018 (IHMA 2045454), Guatemala, IAI, 2019): 0.25 µg/mL | MIC ([1]; isolate ARC7019 (IHMA 2114463), Thailand, RTI, 2019): 1 µg/mL | MIC ([1]; isolate ARC7020 (IHMA 2045326), Guatemala, RTI, 2019): 0.5 µg/mL | MIC ([1]; isolate ARC7021 (IHMA 1966347), Guatemala, RTI, 2019): 0.25 µg/mL | MIC ([1]; isolate ARC7022 (IHMA 2045319), Guatemala, IAI, 2019): 1 µg/mL | MIC ([1]; isolate ARC7024 (IHMA 2059448), Turkey, RTI, 2019): 2 µg/mL | MIC ([1]; isolate ARC7025 (IHMA 2002121), Spain, RTI, 2019): 8 µg/mL | MIC ([1]; isolate ARC7026 (IHMA 2104494), Guatemala, BSI, 2019): 2 µg/mL | MIC ([1]; isolate ARC7082 (IHMA 2160640), Belgium, BSI, 2020): 16 µg/mL | MIC ([1]; isolate ARC7083 (IHMA 2163687), United States, RTI, 2020): 16 µg/mL | MIC ([1]; isolate ARC7084 (IHMA 2189596), Germany, RTI, 2020): 1 µg/mL | MIC ([1]; isolate ARC7085 (IHMA 2205747), Guatemala, IAI, 2020): 1 µg/mL | MIC ([1]; isolate ARC7086 (IHMA 2207563), Israel, RTI, 2020): 2 µg/mL | MIC ([1]; isolate ARC7088 (IHMA 2215554), Turkey, BSI, 2020): 16 µg/mL | MIC ([1]; isolate ARC7089 (IHMA 2240345), Argentina, BSI, 2020): 2 µg/mL | MIC ([1]; isolate ARC7090 (IHMA 2244410), Poland, RTI, 2020): 4 µg/mL | MIC ([1]; isolate ARC7091 (IHMA 2244564), Australia, RTI, 2020): ≤0.12 µg/mL | MIC ([1]; isolate ARC7092 (IHMA 2258772), United States, BSI, 2020): 4 µg/mL | MIC ([1]; isolate ARC7093 (IHMA 2258783), United States, RTI, 2020): 8 µg/mL | MIC ([1]; isolate ARC7094 (IHMA 2296423), Turkey, RTI, 2020): 2 µg/mL | MIC ([1]; isolate ARC7095 (IHMA 2320843), Turkey, BSI, 2020): 8 µg/mL | MIC ([1]; isolate ARC7156 (IHMA 2455450), Greece, RTI, 2021): >16 µg/mL | MIC ([1]; isolate ARC7158 (IHMA 2523738), Italy, BSI, 2021): 2 µg/mL | MIC ([1]; isolate ARC7159 (IHMA 2456229), Malaysia, RTI, 2021): 4 µg/mL | MIC ([1]; isolate ARC7160 (IHMA 2458626), Thailand, RTI, 2021): 1 µg/mL | MIC ([1]; isolate ARC7161 (IHMA 2429252), Ukraine, RTI, 2021): 16 µg/mL | MIC ([1]; isolate ARC7162 (IHMA 2411847), United States, BSI, 2021): 2 µg/mL | MIC ([1]; isolate ARC7163 (IHMA 2477704), United States, BSI, 2021): 2 µg/mL | MIC ([2]; isolate ARC6949 (IHMA 1898982), Romania, RTI, 2018): 0.5 µg/mL | MIC ([2]; isolate ARC6951 (IHMA 1776233), Philippines, RTI, 2018): 0.25 µg/mL | MIC ([2]; isolate ARC6952 (IHMA 1899008), Romania, RTI, 2018): 1 µg/mL | MIC ([2]; isolate ARC7087 (IHMA 2212062), Colombia, BSI, 2020): ≤0.12 µg/mL | MIC [3]: 0.5 µg/mL | MIC50 [4]: 2 µg/mL | MIC90 [4]: 16 µg/mL | MIC Max [4]: >16 µg/mL | MIC Min [4]: ≤0.12 µg/mL | %NS (% non-susceptibility) ([4]; 64 non-clonal ABC isolates, 2023 CLSI breakpoints plus FDA breakpoint of 4 µg/mL for SUL-DUR): 27%
